Measurements reported in ChEMBL document CHEMBL1127973, “A comparative molecular field analysis derived model of the binding of taxol analogues to microtubules” (Bioorg Med Chem Lett, 1994).

Legend:
Tubulin (Homo sapiens) [1] = biological target: T1, Tubulin (Homo sapiens) (UniProt P68371+Q9H4B7+P0DPH7+P68366+Q13509+Q71U36+P04350+Q3ZCM7+P07437+P68363+Q9BQE3+Q6PEY2+Q13885+Q9BVA1+Q9BUF5); assay: Binding affinity to microtubules, activity expressed as ID50 of compound/ID50 of paclitaxel; format: protein-complex assay
Tubulin (Homo sapiens) [2] = biological target: T1, Tubulin (Homo sapiens); assay: Binding affinity to microtubules, activity expressed as log 1/ID50 of compound/ID50 of paclitaxel; format: protein-complex assay

Row | SMILES | ID50 ratio (Tubulin (Homo sapiens) [1]) | Log 1/ratio (Tubulin (Homo sapiens) [2])
1 | CC(=O)O[C@H]1C(=O)[C@@]2(C)[C@H]([C@H](OC(=O)c3ccccc3)[C@]3(O)C[C@H](OC(=O)[C@H](O)[C@@H](NC(=O)c4ccc(Cl)cc4)c4ccccc4)C(C)=C1C3(C)C)[C@]1(OC(C)=O)CO[C@@H]1C[C@@H]2O | 2.4 | -0.38
2 | CC(=O)O[C@@]12CO[C@@H]1C[C@H](O)[C@@]1(C)C(=O)[C@H](O)C3=C(C)[C@@H](OC(=O)[C@@H](O)[C@@H](NC(=O)c4ccccc4)c4ccccc4)C[C@@](O)([C@@H](OC(=O)c4ccccc4)[C@H]21)C3(C)C | 1.3 | -0.114
3 | CC(=O)O[C@@]12CO[C@@H]1C[C@H](O)[C@@]1(C)C(=O)[C@H](O)C3=C(C)[C@@H](OC(=O)CCc4ccccc4)C[C@@](O)([C@@H](OC(=O)c4ccccc4)[C@H]21)C3(C)C | 17 | -1.23
4 | CC(=O)O[C@H]1C(=O)[C@@]2(C)[C@H]([C@H](OC(=O)c3ccccc3)[C@]3(O)C[C@H](OC(=O)[C@H](O)[C@@H](NC(=O)c4ccccc4)c4ccc(F)cc4)C(C)=C1C3(C)C)[C@]1(OC(C)=O)CO[C@@H]1C[C@@H]2O | 1.1 | -0.0414
5 | CC(=O)O[C@@]12CO[C@@H]1C[C@H](O)[C@@]1(C)C(=O)[C@H](O)C3=C(C)[C@@H](OC(=O)[C@H](O)[C@@H](NC(=O)c4ccccc4)c4ccccc4)C[C@@](O)([C@@H](OC(=O)c4ccccc4)[C@H]21)C3(C)C | 1.3 | -0.114
6 | CC(=O)O[C@H]1C(=O)[C@@]2(C)[C@H]([C@H](OC(=O)c3ccccc3)[C@]3(O)C[C@H](OC(=O)[C@H](NC(=O)OC(C)(C)C)[C@@H](O)c4ccccc4)C(C)=C1C3(C)C)[C@]1(OC(C)=O)CO[C@@H]1C[C@@H]2O | 10 | -1
7 | CC(=O)O[C@H]1C(=O)[C@@]2(C)[C@H]([C@H](OC(=O)c3ccccc3)[C@]3(O)C[C@H](OC(=O)[C@H](OC(C)=O)[C@@H](NC(=O)c4ccccc4)c4ccccc4)C(C)=C1C3(C)C)[C@]1(OC(C)=O)CO[C@@H]1C[C@@H]2O | 30 | -1.48
8 | CC(=O)O[C@H]1C(=O)[C@@]2(C)[C@H]([C@H](OC(=O)c3ccccc3)[C@]3(O)C[C@H](OC(=O)[C@@H](NC(=O)c4ccccc4)[C@H](O)c4ccccc4)C(C)=C1C3(C)C)[C@]1(OC(C)=O)CO[C@@H]1C[C@@H]2O | 110 | -2.04
9 | CC(=O)O[C@H]1C(=O)[C@]2(C)[C@@H](OC(=O)[C@H](N)CCC(=O)O)C[C@H]3OC[C@@]3(OC(C)=O)[C@H]2[C@H](OC(=O)c2ccccc2)[C@]2(O)C[C@H](OC(=O)[C@H](O)[C@@H](NC(=O)c3ccccc3)c3ccccc3)C(C)=C1C2(C)C | 1 | 0
10 | CC(=O)O[C@H]1C(=O)[C@@]2(C)[C@H]([C@H](OC(=O)c3ccccc3)[C@]3(O)C[C@H](OC(=O)[C@H](O)[C@@H](NC(=O)c4ccccc4)c4ccc(O)cc4)C(C)=C1C3(C)C)[C@]1(OC(C)=O)CO[C@@H]1C[C@@H]2O | 0.8 | 0.0969
11 | CC(=O)O[C@@H](C(=O)O[C@H]1C[C@@]2(O)[C@@H](OC(=O)c3ccccc3)[C@@H]3[C@]4(OC(C)=O)CO[C@@H]4C[C@H](O)[C@@]3(C)C(=O)[C@H](O)C(=C1C)C2(C)C)[C@@H](NC(=O)OC(C)(C)C)c1ccccc1 | 10 | -1.48
12 | CC(=O)O[C@H]1C(=O)[C@@]2(C)[C@H]([C@H](OC(=O)c3ccccc3)[C@]3(O)C[C@H](OC(=O)[C@H](O)[C@@H](NC(=O)c4ccccc4)c4ccc(C)cc4)C(C)=C1C3(C)C)[C@]1(OC(C)=O)CO[C@@H]1C[C@@H]2O | 2.4 | -0.38
13 | CC(=O)O[C@@]12CO[C@@H]1C[C@H](O)[C@@]1(C)C(=O)[C@H](O)C3=C(C)[C@@H](OC(=O)[C@H](O)[C@H](NC(=O)c4ccccc4)c4ccccc4)C[C@@](O)([C@@H](OC(=O)c4ccccc4)[C@H]21)C3(C)C | 1.3 | -0.114
14 | CC(=O)O[C@H]1C(=O)[C@@]2(C)[C@H]([C@H](OC(=O)c3ccccc3)[C@]3(O)C[C@H](OC(=O)[C@H](O)[C@@H](NC(=O)c4ccccc4)c4ccc5ccccc5c4)C(C)=C1C3(C)C)[C@]1(OC(C)=O)CO[C@@H]1C[C@@H]2O | 7.1 | -0.851
15 | CC(=O)O[C@H]1C(=O)[C@@]2(C)[C@H]([C@H](OC(=O)c3ccccc3)[C@]3(O)C[C@H](OC(=O)[C@H](O)[C@@H](NC(=O)c4ccccc4)c4cccc(Cl)c4)C(C)=C1C3(C)C)[C@]1(OC(C)=O)CO[C@@H]1C[C@@H]2O | 4.4 | -0.644
16 | CC(=O)O[C@@]12CO[C@@H]1C[C@H](OC(=O)CN)[C@@]1(C)C(=O)[C@H](OC(=O)CN)C3=C(C)[C@@H](OC(=O)[C@H](O)[C@@H](NC(=O)OC(C)(C)C)c4ccccc4)C[C@@](O)([C@@H](OC(=O)c4ccccc4)[C@H]21)C3(C)C | 1.2 | -0.0792
17 | CC(=O)O[C@@]12CO[C@@H]1C[C@H](O)[C@@]1(C)C(=O)[C@H](O)C3=C(C)[C@@H](OC(=O)[C@@H](O)[C@H](NC(=O)OC(C)(C)C)c4ccccc4)C[C@@](O)([C@@H](OC(=O)c4ccccc4)[C@H]21)C3(C)C | 30 | -1.48

Row | SMILES | ID50 ratio (Tubulin (Homo sapiens) [1]) | Log 1/ratio (Tubulin (Homo sapiens) [2])
18 | CC(=O)O[C@@]12CO[C@@H]1C[C@H](O)[C@@]1(C)C(=O)[C@H](O)C3=C(C)[C@@H](OC(=O)[C@@H](O)Cc4ccccc4)C[C@@](O)([C@@H](OC(=O)c4ccccc4)[C@H]21)C3(C)C | 3.5 | -0.544
19 | CC(=O)O[C@H]1C(=O)[C@@]2(C)[C@H]([C@H](OC(=O)c3ccccc3)[C@]3(O)C[C@H](OC(=O)[C@H](O)[C@@H](NC(=O)c4ccc(C(F)(F)F)cc4)c4ccccc4)C(C)=C1C3(C)C)[C@]1(OC(C)=O)CO[C@@H]1C[C@@H]2O | 6 | -0.778
20 | CC(=O)O[C@@]12CO[C@@H]1C[C@H](O)[C@@]1(C)C(=O)[C@H](O)C3=C(C)[C@@H](OC(=O)[C@H](NC(=O)OC(C)(C)C)[C@@H](O)c4ccccc4)C[C@@](O)([C@@H](OC(=O)c4ccccc4)[C@H]21)C3(C)C | 10 | -1
21 | CC(=O)O[C@@]12CO[C@@H]1C[C@H](OC(=O)[C@H](O)[C@@H](O)[C@H](O)CO)[C@@]1(C)C(=O)[C@H](O)C3=C(C)[C@@H](OC(=O)[C@H](O)[C@@H](NC(=O)c4ccccc4)c4ccccc4)C[C@@](O)([C@@H](OC(=O)c4ccccc4)[C@H]21)C3(C)C | 0.6 | 0.222
22 | CC(=O)O[C@H]1C(=O)[C@@]2(C)[C@H]([C@H](OC(=O)c3ccccc3)[C@]3(O)C[C@H](OC(=O)[C@H](O)[C@@H](NC(=O)C(C)=O)c4ccccc4)C(C)=C1C3(C)C)[C@]1(OC(C)=O)CO[C@@H]1C[C@@H]2O | 3.5 | -0.544
23 | CC(=O)O[C@H]1C(=O)[C@@]2(C)[C@H]([C@H](OC(=O)c3ccccc3)[C@]3(O)C[C@H](OC(=O)[C@H](O)[C@@H](N)c4ccccc4)C(C)=C1C3(C)C)[C@]1(OC(C)=O)CO[C@@H]1C[C@@H]2O | 44 | -1.64
24 | CC(=O)O[C@@]12CO[C@@H]1C[C@H](O)[C@@]1(C)C(=O)[C@H](O)C3=C(C)[C@@H](OC(=O)[C@H](O)[C@@H](NC(=O)CCCC(=O)O)c4ccccc4)C[C@@](O)([C@@H](OC(=O)c4ccccc4)[C@H]21)C3(C)C | 1 | 0
25 | CC(=O)O[C@@]12CO[C@@H]1C[C@H](O)[C@@]1(C)C(=O)[C@H](O)C3=C(C)[C@@H](OC(=O)[C@H](O)[C@@H](NC(=O)OC(C)(C)C)c4ccccc4)C[C@@](O)([C@@H](OC(=O)c4ccccc4)[C@H]21)C3(C)C (stereo in doubt; 39) | 0.5 | 0.301
26 | C/C=C/C(=O)O[C@H]1C[C@@]2(O)[C@@H](OC(=O)c3ccccc3)[C@@H]3[C@]4(OC(C)=O)CO[C@@H]4C[C@H](O)[C@@]3(C)C(=O)[C@H](OC(C)=O)C(=C1C)C2(C)C | 100 | -2
27 | CC(=O)O[C@H]1C(=O)[C@@]2(C)[C@H]([C@H](OC(=O)c3ccccc3)[C@]3(O)C[C@H](OC(=O)[C@H](O)[C@@H](NC(=O)c4ccco4)c4ccccc4)C(C)=C1C3(C)C)[C@]1(OC(C)=O)CO[C@@H]1C[C@@H]2O | 0.8 | 
28 | CC(=O)O[C@H]1C(=O)[C@@]2(C)[C@H]([C@H](OC(=O)c3ccccc3)[C@]3(O)C[C@H](OC(=O)[C@H](O)[C@@H](NC(=O)c4ccc(N=[N+]=[N-])cc4)c4ccccc4)C(C)=C1C3(C)C)[C@]1(OC(C)=O)CO[C@@H]1C[C@@H]2O | 2 | 
29 | CC(=O)O[C@H]1C(=O)[C@@]2(C)[C@H]([C@H](OC(=O)c3ccccc3)[C@]3(O)C[C@H](OC(=O)[C@H](O)[C@@H](NC(=O)c4ccccc4)c4cccnc4)C(C)=C1C3(C)C)[C@]1(OC(C)=O)CO[C@@H]1C[C@@H]2O | 0.5 | 
30 | CC(=O)O[C@@]12CO[C@@H]1C[C@H](O)[C@@]1(C)C(=O)CC3=C(C)[C@@H](OC(=O)[C@H](O)[C@@H](NC(=O)c4ccccc4)c4ccccc4)C[C@@](O)([C@@H](OC(=O)c4ccccc4)[C@H]21)C3(C)C (stereo in doubt; 17) | 143 | 
31 | CC(=O)O[C@H]1C(=O)[C@@]2(C)[C@H]([C@H](OC(=O)c3ccccc3)[C@]3(O)C[C@H](OC(=O)[C@H](O)[C@@H](NC(=O)c4ccccc4)c4ccncc4)C(C)=C1C3(C)C)[C@]1(OC(C)=O)CO[C@@H]1C[C@@H]2O | 0.4 | 
32 | CC(=O)O[C@H]1C(=O)[C@@]2(C)[C@H]([C@H](OC(=O)c3ccccc3)[C@]3(O)C[C@H](OC(=O)[C@H](O)[C@@H](NC(=O)c4ccc([N+](=O)[O-])cc4)c4ccccc4)C(C)=C1C3(C)C)[C@]1(OC(C)=O)CO[C@@H]1C[C@@H]2O | 2 | 
33 | CC(=O)O[C@H]1C(=O)[C@@]2(C)[C@H]([C@H](OC(=O)c3ccccc3)[C@]3(O)C[C@H](OC(=O)[C@H](O)[C@@H](NC(=O)c4ccccc4)c4ccccn4)C(C)=C1C3(C)C)[C@]1(OC(C)=O)CO[C@@H]1C[C@@H]2O | 0.7 | 
34 | CC(=O)O[C@H]1C(=O)[C@@]2(C)[C@H]([C@H](OC(=O)c3ccccc3)[C@]3(O)C[C@H](OC(=O)[C@H](O)[C@@H](NC(=O)OC(C)(C)C)c4ccco4)C(C)=C1C3(C)C)[C@]1(OC(C)=O)CO[C@@H]1C[C@@H]2O | 1.7 | 
